{"source": "patent US9587002B2", "about": "“Sequence of nucleotides and peptides GSE 24.2 of dyskerin, which can induce telomerase activity, method for obtaining same, therapeutic compositions and applications thereof” (CONSEJO SUPERIOR DE INVESTIGACIONES CIENTIFICAS, priority 2005, dated 2017)", "key": {"hTERT": {"tested_on": "hTERT", "assay": "RT-PCR expression of hTERT in 293T cell lines after cisplatin", "assay_type": "cell-based, human", "conditions": "pLNCX cells; 3 μg/ml, 3 days of treatment", "method": "(§1) FIG. 7.—Expression levels of different genes related to telomerase in 293T cells: pLNCX and 24.2 following treatment with cisplatin. The cells were seeded in 60-mm plates, treated with 3 μg/ml of cDDP following pre-treatment with 0.5 μg/ml of cisplatin for 3 days and, subsequently, collected at the times specified in the figure (3 and 7 days). Following the extraction of RNA, RT-PCR was performed with oligos specific for hTERT, hTR and dyskerin in order to study the expression levels of the messenger RNAs. As a starting RNA control, oligos for the amplification of GAPDH were used.\n(§2) One of the explanations for the lower sensitivity of pLNCX 24.2 cells to cisplatin could be a change in the levels of some of the components of the telomerase complex. Therefore, the expression levels of different genes involved in the telomerase complex and the effect that cisplatin had on their expression were studied. To this end, the pLNCX and pLNCX 24.2 cells were pre-treated with 0.5 μg/ml and treated with 3 μg/ml of cisplatin for 3 and 7 days. Using oligos specific for hTR, hTERT and dyskerin, the expression levels of these genes and the effect of cisplatin on said expression were studied. […] This change in the sensitivity to cisplatin could explain, at least partially, the difference in sensitivity in the telomerase activity assays.\n(§3) Expression of genes by RT-PCR. […]"}, "hTR": {"tested_on": "hTR", "assay": "RT-PCR expression of hTR in 293T cell lines after cisplatin", "assay_type": "cell-based, human", "conditions": "pLNCX and pLNCX 24.2 cells; 3 μg/ml, 3 and 7 days", "method": "as §1, §2, §3"}, "dyskerin": {"tested_on": "dyskerin", "assay": "RT-PCR expression of dyskerin in 293T cell lines after cisplatin", "assay_type": "cell-based, human", "conditions": "pLNCX and pLNCX 24.2 cells; 3 μg/ml, 3 and 7 days", "method": "as §1, §2, §3"}, "telomerase [1]": {"molecular_target": "T1, telomerase (Homo sapiens, UniProt O14746)", "T1 sequence (O14746 whole entry)": "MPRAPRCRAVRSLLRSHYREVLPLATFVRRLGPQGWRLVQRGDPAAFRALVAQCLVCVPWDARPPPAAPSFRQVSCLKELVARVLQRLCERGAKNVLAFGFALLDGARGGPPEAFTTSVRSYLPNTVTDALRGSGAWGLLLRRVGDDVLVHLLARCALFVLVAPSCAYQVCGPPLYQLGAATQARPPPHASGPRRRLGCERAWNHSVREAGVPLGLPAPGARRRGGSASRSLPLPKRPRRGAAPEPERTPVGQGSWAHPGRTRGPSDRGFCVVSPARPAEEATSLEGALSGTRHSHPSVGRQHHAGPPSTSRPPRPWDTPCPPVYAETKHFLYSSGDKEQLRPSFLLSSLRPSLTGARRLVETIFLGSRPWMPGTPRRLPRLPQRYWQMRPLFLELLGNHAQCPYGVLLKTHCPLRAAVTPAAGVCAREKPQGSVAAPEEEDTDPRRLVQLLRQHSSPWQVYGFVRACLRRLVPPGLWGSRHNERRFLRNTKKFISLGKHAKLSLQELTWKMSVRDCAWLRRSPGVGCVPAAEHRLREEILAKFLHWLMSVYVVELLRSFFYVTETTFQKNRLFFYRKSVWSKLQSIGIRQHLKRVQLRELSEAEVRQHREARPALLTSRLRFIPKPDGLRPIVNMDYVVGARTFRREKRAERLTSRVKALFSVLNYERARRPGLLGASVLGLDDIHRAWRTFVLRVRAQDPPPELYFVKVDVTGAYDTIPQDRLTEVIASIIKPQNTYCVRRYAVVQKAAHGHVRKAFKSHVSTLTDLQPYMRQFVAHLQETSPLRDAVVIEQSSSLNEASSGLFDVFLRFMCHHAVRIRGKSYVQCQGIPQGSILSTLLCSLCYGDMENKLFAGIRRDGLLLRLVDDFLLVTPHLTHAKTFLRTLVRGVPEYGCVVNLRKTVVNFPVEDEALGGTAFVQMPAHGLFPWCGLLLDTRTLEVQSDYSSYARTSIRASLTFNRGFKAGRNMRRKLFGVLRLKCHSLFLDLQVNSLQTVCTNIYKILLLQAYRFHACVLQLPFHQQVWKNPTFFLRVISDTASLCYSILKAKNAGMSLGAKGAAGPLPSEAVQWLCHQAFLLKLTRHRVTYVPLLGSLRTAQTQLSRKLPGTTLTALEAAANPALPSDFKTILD", "T1 sequence (O60832 2-514 partner limits assumed)": "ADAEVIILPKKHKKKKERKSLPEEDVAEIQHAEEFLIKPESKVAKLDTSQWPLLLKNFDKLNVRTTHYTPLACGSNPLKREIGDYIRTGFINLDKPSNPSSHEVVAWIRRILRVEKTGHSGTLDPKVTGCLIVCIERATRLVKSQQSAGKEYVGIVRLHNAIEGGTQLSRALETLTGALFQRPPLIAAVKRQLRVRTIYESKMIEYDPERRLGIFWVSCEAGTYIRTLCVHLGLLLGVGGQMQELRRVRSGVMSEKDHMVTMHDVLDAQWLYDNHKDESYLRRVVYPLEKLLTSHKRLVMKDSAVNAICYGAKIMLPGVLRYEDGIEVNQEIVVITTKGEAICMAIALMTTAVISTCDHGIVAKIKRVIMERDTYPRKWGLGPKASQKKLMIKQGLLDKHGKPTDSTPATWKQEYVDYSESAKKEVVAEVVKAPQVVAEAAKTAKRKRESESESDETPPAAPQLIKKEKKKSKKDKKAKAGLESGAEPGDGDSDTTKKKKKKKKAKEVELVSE", "T1 sequence (Q9NPE3 whole entry partner)": "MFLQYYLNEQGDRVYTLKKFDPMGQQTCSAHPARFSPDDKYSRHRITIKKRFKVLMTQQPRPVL", "T1 sequence (Q9NX24 whole entry partner)": "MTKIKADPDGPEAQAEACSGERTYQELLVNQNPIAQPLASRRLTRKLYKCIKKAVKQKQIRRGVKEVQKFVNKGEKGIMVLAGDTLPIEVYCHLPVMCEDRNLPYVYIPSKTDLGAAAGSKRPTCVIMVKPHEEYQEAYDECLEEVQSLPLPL", "T1 sequence (Q9NY12 whole entry partner)": "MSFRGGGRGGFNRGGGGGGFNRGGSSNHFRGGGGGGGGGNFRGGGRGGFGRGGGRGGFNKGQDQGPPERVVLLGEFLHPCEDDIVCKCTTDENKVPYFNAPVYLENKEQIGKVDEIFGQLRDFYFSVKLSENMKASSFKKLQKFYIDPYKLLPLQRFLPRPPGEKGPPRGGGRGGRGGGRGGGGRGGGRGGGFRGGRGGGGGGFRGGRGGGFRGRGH", "T1 sequence (Q9BUR4 whole entry partner)": "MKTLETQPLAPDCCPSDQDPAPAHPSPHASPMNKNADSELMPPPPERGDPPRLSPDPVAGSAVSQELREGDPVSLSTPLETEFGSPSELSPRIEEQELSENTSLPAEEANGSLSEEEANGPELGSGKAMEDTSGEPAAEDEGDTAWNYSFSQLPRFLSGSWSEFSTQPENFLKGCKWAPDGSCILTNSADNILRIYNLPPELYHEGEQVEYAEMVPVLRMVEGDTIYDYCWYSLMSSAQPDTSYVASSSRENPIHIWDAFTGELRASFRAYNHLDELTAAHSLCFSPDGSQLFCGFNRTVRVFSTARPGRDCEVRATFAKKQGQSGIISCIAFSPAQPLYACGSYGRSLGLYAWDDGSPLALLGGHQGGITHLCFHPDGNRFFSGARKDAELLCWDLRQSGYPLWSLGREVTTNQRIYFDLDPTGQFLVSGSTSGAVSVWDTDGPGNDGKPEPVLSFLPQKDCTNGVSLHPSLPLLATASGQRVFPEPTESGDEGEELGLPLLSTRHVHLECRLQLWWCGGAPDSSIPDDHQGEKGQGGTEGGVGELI", "conditions": "different cell lines / G-quadruplex formation in telomeres; cited from earlier work"}, "telomerase [2]": {"molecular_target": "T1, telomerase", "assay": "Telomerase activity (TRAP) of 293T cell lines treated with cisplatin", "assay_type": "cell-based", "parameters": "endogenous in cells; host or cells: 293T cells stably transfected with empty pLNCX or pLNCX 24.2", "conditions": "293T pLNCX cells; pre-treated 0.5 μg/ml 3 days, then 3 μg/ml, 7-day treatment", "method": "FIG. 5.—Telomerase activity of the 293T cell lines: pLNCX and 24.2 following treatment with cisplatin. The cells were seeded in 60-mm plates, pre-treated with 0.5 μg/ml of cisplatin for 3 days and subsequently treated with cisplatin at a dose of 3 μg/ml […]. The telomerase activity was measured by means of the Intergen TRAPeze assay. The experiment was performed 3 times, with similar results.\nTo this end, an assay of telomerase activity was performed using the TRAP method with the pLNCX and pLNCX 24.2 cell lines (FIG. 5), pre-treating them for 3 days with 0.5 μg/ml of cisplatin; subsequently, they were treated with 3 μg/ml of cisplatin for 3 and 7 days. […]\nTelomerase activity assay based on the TRAP method Wright et al., 1995). The telomerase activity was measured using the TRAPeze telomerase detection kit (Intergen) in accordance with the instruction manual. The protein concentration of each extract was quantified by means of the Bradford method using the BIORAD reagent and after performing a PCR in accordance with the manual instructions; polyacrylamide gel electrophoresis was performed with the reaction products under non-denaturing conditions and, subsequently, it was stained with Ethidium bromide for 30 minutes."}}, "data": [{"compound": "N.N.[Cl][Pt][Cl]", "note": "[cisplatin]", "values": [{"measurement": "effect of cisplatin on hTERT expression", "setting": "hTERT", "value": "reduction in the expression of hTERT"}, {"measurement": "effect of cisplatin on hTR expression", "setting": "hTR", "value": "no effect"}, {"measurement": "effect of cisplatin on dyskerin expression", "setting": "dyskerin", "value": "no effect"}, {"measurement": "inhibition of telomerase activity (literature)", "setting": "telomerase [1]", "value": "capable of inhibiting telomerase activity"}, {"measurement": "effect of cisplatin on telomerase activity", "setting": "telomerase [2]", "value": "caused inhibition of telomerase activity"}]}]}
